In patent US10828315B2 (Madrigal Pharmaceuticals, Inc., priority 2013, dated 2020):
Converted amounts (≈) assume the structure as drawn. “Also recorded” adds a separate entry of the source. Where two headings read alike, the source gives them in different places.

Assays:
HER2 = HER2 degradation assay with BT-474 cell line (Example 12, FACS); assay type: cell-based, human
[1] = tested on: Hsp90 client proteins (EGFR, MET, CDC2), Hsp70, DNA damage markers; experiment: Pharmacodynamics in SCLC xenograft tumors; assay type: in vivo
[2] = tested on: HCT-116 human colorectal xenografts; experiment: Mouse xenograft efficacy in HCT-116 colon cancer model; settings: IV
Protocol: The cells were maintained in vitro as a monolayer culture in McCoy's 5a Medium. Fetal bovine serum was then be added to the medium. The final concentration of fetal bovine serum was 10%. Cells were cultured at 37° C. and 5% CO2. The tumor cells were routinely sub-cultured twice weekly by trypsin-EDTA treatment. Cells in an exponential growth phase were harvested and counted for tumor inoculation.
100 18-22 g, 5-7 week old, female BALB/cA nude mice were inoculated with the HCT 116 cells (2.0×10^6, 1:1 with Matrigel) subcutaneously on the back of each animal (0.1 mL/mouse). When the average tumor volume reached about 150-250 mm^3, 60 of the inoculated mice was selected based on tumor growth and randomly grouped into 6 treatment groups (10 mice per group) according to the following table.
The administrations were made with 27-gauge IV needle.
During the treatment period, the implanted tumors were measured by caliper twice per week. The tumors were measured for the maximum width (X) and length (Y) and the tumor volumes (V) were calculated using the formula: V=(X^2Y)/2. The differences in the tumor volume between the control and treatment groups were analyzed for significance using the unpaired two-tailed Student's t-test. P<0.05 was considered to be statistically significant. The animal body weights were also weighed and recorded twice per week.

[3] = Artificial membrane permeability assay (PAMPA); settings: same protocol, second table
[4] = tested on: H2AX phosphorylation, HSP70, EGFR, MET; experiment: Pharmacodynamics in CRC (HCT-116) xenograft tumors; assay type: in vivo, mouse
MCF-7 xenografts = settings: mouse, in vivo
Protocol: MCF-7 breast cancer cells were purchased from ATCC. The cells were maintained in vitro as a monolayer culture in McCoy's 5a Medium. Fetal bovine serum was then added to the medium. The final concentration of fetal bovine serum was 10%. Cells were cultured at 37° C. and 5% CO2. The tumor cells were routinely sub-cultured twice weekly by trypsin-EDTA treatment. Cells in an exponential growth phase were harvested and counted for tumor inoculation.
75 24-30 g, 10-13 week old, female CD-1 nude mice were inoculated with the MCF-7 cells (5.0×10^6/mouse) orthotopically in mammary fat pad (0.1 mL/mouse). 60 days estrogen pellets was implanted the day prior to cell implantations. When the average tumor volume reached about 100-225 mm^3, 40 of the inoculated mice were selected based on tumor growth and randomly grouped into 5 treatment groups (8 mice per group) according to the following table. Mice that were not put on treatment were euthanized.
During the treatment period, the implanted tumors were measured by caliper twice per week. […] Animal body weights were also weighed and recorded 5× per week.

[5] = Solubility of SDC-TRAP-0063 (ganetespib placebo formulation, PEG-300); assay type: physicochemical; settings: PEG-300, organic solvent or mixture, thermodynamic from solid; Lot 8; estimated; read-out: equilibrium solubility in PEG-300
[6] = as above; assay type: physicochemical; settings: for solubility at 1 h / solubility at 1 day / solubility at 3 days / solubility at 7 days: ganetespib placebo formulation, organic solvent or mixture, thermodynamic from solid
Protocol: Concentration of dissolved drug was determined by HPLC assay method at 1 hr, 1 day, 3 days and 7 days.

[7] = tested on: human breast cancer cell line BT-474; experiment: Cytotoxicity assay (CellTiter-Glo, 72 h), BT-474; assay type: cell-based; settings: BT-474, 72 hours, read-out: Cytotoxicity (IC50, nM) BT-474
Protocol: Cytotoxicity of SDC-TRAP molecules was determined in three cancer cell lines. […] 80 μL of CellTiter-Glo was added to each well, followed by room temperature incubation in the dark for 15 minutes. Cell was determined by luminescence. IC50 was calculated using XLfit™ software.

[8] = mouse
[9] = SCLC xenograft tumors, 24 hrs after drug exposure
[10] = kinetic solubility in ganetespib placebo formulation, Lot6
[11] = kinetic solubility in ganetespib placebo formulation, Lot8

CCc1c2c(nc3ccc(OC(=O)N4CCC(CCn5ccc6cc(-n7c(O)nnc7-c7cc(C(C)C)c(O)cc7O)ccc65)CC4)cc13)-c1cc3c(c(=O)n1C2)COC(=O)[C@]3(O)CC [SDC-TRAP-0063, 4,11-diethyl-4-hydroxy-3,14-dioxo-3,4,12,14-tetrahydro-1H-pyrano[3′,4′:6,7]indolizino[1,2-b]quinolin-9-yl 4-(2-(5-(3-(2,4-dihydroxy-5-isopropylphenyl)-5-hydroxy-4H-1,2,4-triazol-4-yl)-1H-indol-1-yl)ethyl)piperidine-1-carboxylate]
IC50 (HER2): 793 nM | kinetics of acetyl-histone H3 induction ([1]; SCLC xenograft tumors, 24, 72 and 96 hrs): gradual increase in H3ac levels, peaking at 96 hr | Hsp90 client proteins (EGFR, MET, CDC2) and Hsp70 expression [1, 9]: slight increase in Hsp70 with no impact on EGFR, MET or CDC2 | markers for DNA damage (acetyl-histone H3, p53, p-H2AX) [1, 9]: dramatic increase in markers for DNA damage | phosphorylation of p53 ([1]; SCLC xenograft tumors, out to 96 hrs): induced by both agents, though more so with SDC-TRAP-0063 | tolerability ([2]; HCT-116 xenografts, Q7D×3): very well tolerated | antitumor activity in HCT-116 xenografts (FIG. 23) ([2]; Q7D×3, then drug-free period, SDC-TRAP-0063 200 and 100 mg/kg, SDC-TRAP-0046 94 mg/kg, irinotecan 67 mg/kg, SYN-01 100 mg/kg): remarkable and durable antitumor activity compared with irinotecan or ganetespib plus irinotecan; also recorded: better activity in inhibiting the growth of HCT-116 cells in vivo than either positive control group; also recorded: significant dose-dependent activity | Mass Retention [3]: 18.7% | H2AX phosphorylation ([4]; HCT-116 tumors, 24 hr): stimulate H2AX phosphorylation at 24 hr | HSP70 and Hsp90 client protein (EGFR, MET) expression ([4]; HCT-116 tumors, 24 hr exposure): induces HSP70 comparable to irinotecan but much less than ganetespib; also recorded: lack of effects on EGFR and MET stability | Hsp90 inhibition (conclusion from PD) ([4]; HCT-116 xenograft tumors): weak Hsp90 inhibitor | kinetics of H2AX phosphorylation ([4]; HCT-116 xenograft tumors): beginning at 8 hr and leveling off at 24 hr | safety profile (MCF-7 xenografts): good safety profile | solubility thermodynamic [5]: ~44 mg/mL (≈ 50 mM) | solubility at 1 h ([6]; kinetic solubility in ganetespib placebo formulation (35% v/v tween 80, 40% v/v PEG-300, 25% v/v dehydrated alcohol), Lot6): 11.3 mg/mL (≈ 12.8 mM) | solubility at 1 day [6, 10]: 10.2 mg/mL (≈ 11.6 mM) | solubility at 3 days [6, 10]: 9.68 mg/mL (≈ 11 mM) | solubility at 7 days [6, 10]: 7.32 mg/mL (≈ 8.32 mM) | solubility at 1 h [6, 11]: 36.2 mg/mL (≈ 41.1 mM) | solubility at 1 day [6, 11]: 35.3 mg/mL (≈ 40.1 mM) | solubility at 3 days [6, 11]: 30 mg/mL (≈ 34.1 mM) | solubility at 7 days [6, 11]: 19.7 mg/mL (≈ 22.4 mM) | solubility over time (1 hr, 1 day, 3 days, 7 days) ([6]; lot 6 and lot 8, ganetespib placebo formulation (35% v/v tween 80, 40% v/v PEG-300, 25% v/v dehydrated alcohol), ambient): appear to decrease over time, although no any degradation was observed | IC50 [7]: 320 nM | Peak Area Ratio ([8]; 0 h, 10 μM): 17.9 | Peak Area Ratio ([8]; 0.5 h, 10 μM): 7.77 | Peak Area Ratio ([8]; 1 h, 10 μM): 1.98 | Peak Area Ratio ([8]; […], 10 μM): 15.6 | % Remaining (1 h) ([8]; plasma, 1 h, 10 µM): 11.1% | % Remaining (1 h, 37° C.) ([8]; plasma, 1 h, 10 µM): 11.1% | % Remaining (1 h) ([8]; plasma, 1 h, 10 μM): 11.1%
